Test results as given in US20200054646A1, “USE OF PHENOTHIAZINE DERIVATIVE IN THE TREATMENT OF INFECTIOUS PURPURA OR PURPURA FULMINANS” (priority 2016, published 2020).

System: Nm2C4.3 adhesion to human dermal microvascular endothelial cells (HDMECs)
Assay: Meningococcal adhesion to endothelial cells after pretreatment of bacteria
Assay type: cell-based, Neisseria meningitidis
Conditions: bacteria pre-treated with 30 μM for 30 minutes
Description: Nm2C4.3 grown in suspension were pretreated in the absence or in the presence of 30 μM Trifluoperazine for 30 minutes before adhesion to human dermal microvascular endothelial cells (HDMECs) for 30 minutes. Infection was allowed to proceed for further 30, 60 or 90 minutes before fixation and immunostaining using anti-Nm2C4.3 antibody and Alexa Fluor 633 Phalloidin. (A) Representative fluorescence microscopy showing bacterial colony (white dots) formed at the surface of the endothelial cells. (B) Quantification of the bacterial colonization was performed using Image J software.

## CN1CCN(CCCN2c3ccccc3Sc3ccc(C(F)(F)F)cc32)CC1 [Trifluoperazine]
  adhesion / colony formation at the endothelial cell surface by pre-treated bacteria: did no longer adhere
